Here are results for 4 molecules from publication PMC3839906, “Structural and Physiological Analyses of the Alkanesulphonate-Binding Protein (SsuA) of the Citrus Pathogen Xanthomonas citri” (PLoS ONE, 2013).

In assay [1] the target is T1, SsuA (alkanesulphonate-binding protein) (Xanthomonas citri, UniProt A0AAI7ZHA1).
T1 construct: mature periplasmic protein without the 42-residue signal peptide (972 bp amplicon), pET28a N-terminal His6 tag with thrombin site, tag cut with thrombin; expressed in E. coli BL21(DE3); one molecule per asymmetric unit
T1 sequence (A0AAI7ZHA1 entry or part of it): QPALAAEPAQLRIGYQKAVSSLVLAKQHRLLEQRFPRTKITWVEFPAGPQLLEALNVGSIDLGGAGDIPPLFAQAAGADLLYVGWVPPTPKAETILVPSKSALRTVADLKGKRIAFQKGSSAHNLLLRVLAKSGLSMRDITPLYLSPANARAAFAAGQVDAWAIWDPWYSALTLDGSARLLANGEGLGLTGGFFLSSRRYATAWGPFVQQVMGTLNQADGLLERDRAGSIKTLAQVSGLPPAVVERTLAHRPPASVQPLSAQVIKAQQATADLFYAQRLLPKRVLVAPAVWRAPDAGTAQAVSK
The assay can be described thus: thermal shift assay, SYPRO orange. To be noted: 5 mM ligand, 6 µM SsuA, 20 mM Tris pH 7.4, 50 mM NaCl.

Assay [2] deals with T1, SsuA (alkanesulphonate-binding protein). The assay can be described thus: X-ray crystal structure of the complex. Particulars: ligand-binding pocket.

In the case of `O=S(=O)(O)CCNC1CCCCC1` [CHES, 2-(n-cyclohexylamino)-ethanesulphonic acid], the “Tm (unbound form 39.5 °C)” value in assay [1] stood at 43.5 °C.

For the molecule `O=S(=O)(O)CCN1CCN(CCO)CC1` [HEPES, 4-(2-hydroxyethyl)-1-piperazine ethane sulphonic acid], the “X-ray crystal structure of the complex” value in assay [2] (0.1 M HEPES pH 7.5, 1.6 M ammonium sulphate, 0.1 M NaCl) was “PDB codes 3E4R (SsuA + HEPES), 3KSX (SsuA + MOPS) and 3KSJ (SsuA + MES)”. Further, the “Tm (unbound form 39.5 °C)” value in assay [1] worked out at 45.8 °C.

`O=S(=O)(O)CCN1CCOCC1` [MES, 2-(n-morpholino)-ethanesulphonic acid]: the “X-ray crystal structure of the complex” value in assay [2] (PDB code as in the deposition statement b39 (b17 prints 3KSX for MES)) was “PDB codes 3E4R (SsuA + HEPES), 3KSX (SsuA + MOPS) and 3KSJ (SsuA + MES)”. Moreover, the “Tm (unbound form 39.5 °C)” value in assay [1] came out at 47.1 °C.

In the case of `O=S(=O)(O)CCCN1CCOCC1` [MOPS, 3-morpholinopropane-1-sulphonic acid], the “X-ray crystal structure of the complex” value in assay [2] (PDB code as in the deposition statement b39 (b17 prints 3KSJ for MOPS)) is “PDB codes 3E4R (SsuA + HEPES), 3KSX (SsuA + MOPS) and 3KSJ (SsuA + MES)”. Further, the “Tm (unbound form 39.5 °C)” value in assay [1] worked out at 51 °C.
